Assay results from US11779649B2, “Antibodies to PMEL17 and conjugates thereof” (Novartis AG, priority 2018, dated 2023).
Like-named read-outs stand apart in the source and are kept apart here. Starred links: 1 amine or outer side, 2 acyl side, 3 side chain; linkers in the order of their positions; H or OH if unused. Positions of bridges follow the written chain, without caps; N, C: chain ends. Non-standard residues stand in square brackets, D forms with d. Residues, ends and D or L forms follow the SMILES beside them. *: point of attachment. Leu(3R-OH,Nα-propionyl) = CCC(=O)N[C@H](C(=O)*)[C@H](O)C(C)C; X1 = CC(C)[C@@H](O[*:3])[C@H](N[*:1])C(=O)[*:2]; NMeT = CN[C@H](C(=O)O)[C@@H](C)O; dPhLac = O=C(O)[C@H](O)Cc1ccccc1; NMeA = CN[C@@H](C)C(=O)O; NMeDha = C=C(NC)C(=O)O

How the values were obtained:
92.1 uveal melanoma = test: Resazurin-based viability assay, 92.1 uveal melanoma cells; assay type: cell-based
Experimental: (§1) Following drug treatment for 96 or 120 hours, cell viability and proliferation were determined using a resazurin-based viability assay. Briefly, cells were incubated with a resazurin-based solution and color change was detected by absorbance with a spectrophotometer and used as a readout of cell viability. Data presented as mean of 3 independent replicates and relative to PBS-treated cells (control).
as §1, with “(control) (FIG. 6).” for “(control).”
Following drug treatment for 96 or 120 hours, cell viability and proliferation were determined using a resazurin-based viability assay. Data presented as mean of 3 independent replicates and relative to PBS-treated cells (control) (FIG. 8).
as §1

[1] = system: MIAPACA pancreatic ductal adenocarcinoma cells; test: Resazurin-based viability assay, MIAPACA cells; assay type: cell-based; conditions: Homo sapiens, MIA PaCa-2, WT, 96 or 120 hours, Table 4
Experimental: as §1, with “92.1 uveal melanoma and MIAPACA pancreatic ductal adenocarcinoma cells were seeded at low cell density in 96-well plates and treated with increasing concentrations of Compound (A1) or Compound (A2) as indicated. Following” for “Following”

92.1 cells = test: Annexin V flow cytometry apoptosis assay, 92.1 cells; assay type: cell-based; conditions: 92.1 and MIAPACA cells, FIG. 2
Experimental: (§2) 92.1 and MIAPACA cells were seeded in 96-well plates (5000 cells per well) and treated with increasing concentrations of Compound (A1), Compound (A2), and a fixed dose of Staurosporine (100 nM, positive control) as indicated. Following drug treatment for 96, cells were subjected to fluorescence-activated flow cytometry using an Annexin V antibody conjugated to a fluorescent dye. Data presented as mean of 3 independent replicates.
as §2, with “92.1” for “92.1 and MIAPACA”, “3207-(B1) (Isotype control), G4-(B1),” for “Compound (A2),”, “G1-(B1)” for “a fixed dose of Staurosporine (100 nM, positive control)”

GNAQ/11 = test: IP1 levels by TR-FRET in 92.1 uveal melanoma cells; assay type: cell-based; conditions: 92.1 cells, overnight treatment, FIG. 3A
Experimental: (§3) 92.1 uveal melanoma were treated with increasing concentrations of Compound (A1) or Compound (A2) as indicated. Following drug treatment overnight, cells were processed for determination of IP1 levels using TR-FRET (time-resolved fluorescent resonance energy transfer) or protein levels by western-blotting.
92.1 uveal melanoma were treated with DMSO, Compound (A1) (8 nM) and increasing concentrations of Isotype-(B1), anti-PMEL17-(B1) and anti-PMEL17-(B2) ADCs as indicated. Following drug treatment for 2 days, cells were processed for determination of IP1 levels using TR-FRET (time-resolved fluorescent resonance energy transfer). IP1 levels (nM) are presented as mean of 3 independent replicates.

ERK signaling = test: Western-blotting of 92.1 cells, ERK signaling; assay type: cell-based; conditions: FIG. 3C
Experimental: as §3

[2] = Plasma stability of Compound (A1) in mouse, rat, monkey and human plasma compared to buffer; assay type: in vitro ADME; conditions: over 24 h, FIG. 4A-4B
Experimental: The plasma stability of Compound (A1) was investigated in mouse, rat, monkey and human plasma and compared to buffer. Both disappearance of Compound (A1) (FIG. 4A) as well as appearance of the ring-opened form of Compound (A1) having the structure of Compound (A4)
[drawing 153] (FIG. 4B) were monitored over 24 h.

[3] = PK of Compound (A1) after intravenous dosing in mouse; assay type: in vivo; conditions: for Vd: read-out: Vss
Excerpt: Table 5 summarizing all PK values is shown below.

[4] = Stability in buffer at pH 5.6 and in lysosomes; assay type: in vitro ADME; conditions: buffer pH 5.6, lysosomes, 4 h, FIG. 5D
Experimental: In vitro stability of Compound (A2) was tested in plasma and blood from different species (FIG. 5A). […]

[5] = system: Human Platelet Rich Plasma (PRP); conditions: human PRP, 0.1, 1 and 150 nM, 4, 16 or 24 h, TRAP6 32 uM, FIG. 11
Experimental: Platelet aggregation was then measured following treatment with Thrombin Receptor Activating Peptide 6 (TRAP6) at 32 uM.

[6] = system: 92.1-luciferase subcutaneous xenografts; test: 92.1-luciferase subcutaneous xenograft tumor growth in female nude mice; assay type: in vivo; conditions: 7.5 mg/kg single dose i.v., FIG. 16
Experimental: Treatment (single dose i.v. injection) was performed 17 days post tumor inoculation. Values are mean±SEM; sample size, (n=5-12 mice per group). Initial tumor volume at day 0 was approximately 200-250 mm^3.
Treatments (single dose i.v. injection) were performed 17 days post tumor inoculation. Values represent mean±SEM; sample size, (n=5-6 mice per group). Initial tumor volume at day 0 was approximately 300-325 mm^3. (FIG. 16).
Treatment (single dose i.v. injection) was performed 14-17 days post tumor inoculation. Values are mean±SEM; sample size, (n=5-12 mice per group). Initial tumor volume at day 0 was approximately 200-250 mm3.

[7] = Exposure of ADC formats in an in vivo efficacy study and payload ring-opening on the antibody; set-up: species or system mice; conditions: formats of G1-(B1), in vivo efficacy study, FIG. 14D
Excerpt: [drawing 156] (filled circles) while being conjugated to the antibody was shown in vivo in mice (FIG. 14C). […] From comparing the PK of the non-targeted 3207-ADCs (FIG. 14E) one can deduce that the Fc-silencing has a significant effect on lowering the clearance of the DAR4 format.

In the case of `C=C1C(=O)N[C@@H](C)C(=O)N(C)[C@@H](C)C(=O)N[C@@H]([C@H](OC(=O)[C@@H](NC(=O)CC)[C@H](O)C(C)C)C(C)C)C(=O)N(C)[C@@H]([C@@H](C)OC)C(=O)O[C@H](C(C)C)[C@H](NC(C)=O)C(=O)O[C@H](Cc2ccccc2)C(=O)N1C` [Compound (A1), (R)-1-((3S,6S,9S,12S,18R,21S,22R)-21-acetamido-18-benzyl-22-isopropyl-3-((R)-1-methoxyethyl)-4,9,10,12,16-pentamethyl-15-methylene-2,5,8,11,14,17,20-heptaoxo-1,19-dioxa-4,7,10,13,16-pentaazacyclodocosan-6-yl)-2-methylpropyl (2S,3R)-3-hydroxy-4-methyl-2-propionamidopentanoate] (Ac-[X1][dPhLac][NMeDha]A[NMeA][X1](Leu(3R-OH,Nα-propionyl))[NMeT](Me); ester 1-C), the GI50 (92.1 uveal melanoma; 92.1, GNAQ^Q209L, 96 or 120 hours, Table 4, read-out: GI50) is reported as 0.18 nM, the GI50 (92.1 uveal melanoma; 92.1 GNAQ^Q209L, Table 1, read-out: GI50 (nM) 92.1GNAQ^Q209L) is reported as 0.467 nM and the anti-UM activity (92.1 uveal melanoma; 92.1 vs MIAPACA, FIG. 1) is reported as “potent target-dependent anti-UM activity”. For the same molecule, the GI50 [1] was > 10000 nM, the “apoptosis (Annexin V)” value (92.1 cells) was “induced apoptosis in UM cells in GNAQ/11 dependent manner” and the IP1 levels (GNAQ/11) was “reduced IP1 levels”. The “ERK signaling (immunoblots)” value (ERK signaling) was “reduced ERK signaling”, the “transformation of Compound (A1) to ring-opened form in plasma” value [2] was “slightly faster in human plasma” and the “AUCinf/D (nM*h/(mg/kg))” value ([3]; 0.2 mg/kg) was 82 nM*h/(mg/kg). The “C0/D (nM/(mg/kg))” value ([3]; 0.2 mg/kg) was 217 nM/(mg/kg), the “Cmax/D (nM/(mg/kg))” value ([3]; 0.2 mg/kg) was 156 nM/(mg/kg) and the “AUCinf/D (nM*h/(mg/kg))” value ([3]; 0.4 mg/kg) was 118 nM*h/(mg/kg). The “C0/D (nM/(mg/kg))” value ([3]; 0.4 mg/kg) was 270 nM/(mg/kg), the “Cmax/D (nM/(mg/kg))” value ([3]; 0.4 mg/kg) was 208 nM/(mg/kg) and the “AUCinf/D (nM*h/(mg/kg))” value ([3]; 0.8 mg/kg) was 171 nM*h/(mg/kg). The “C0/D (nM/(mg/kg))” value ([3]; 0.8 mg/kg) was 475 nM/(mg/kg), the “Cmax/D (nM/(mg/kg))” value ([3]; 0.8 mg/kg) was 300 nM/(mg/kg) and the exposure with dose ([3]; 0.2-0.8 mg/kg) was “slightly over-proportional increase of exposure with dose”. The clearance ([3]; FIG. 4D) was “very high clearance”, the volume of distribution ([3]; FIG. 4D) was “moderate to high volume of distribution” and the AUC(0-inf) ([3]; in vivo, 0.2 mg/kg) was 0.016 µM·h. It also gave a C0 ([3]; in vivo, 0.2 mg/kg) of 43 nM, a Cmax ([3]; in vivo, 0.2 mg/kg) of 31 nM and a clearance ([3]; in vivo, 0.2 mg/kg, read-out: CL) of 204 mL/min/kg. For the same molecule, the Vd ([3]; in vivo, 0.2 mg/kg) was 8.6 L/kg, the AUC(0-inf) ([3]; in vivo, 0.4 mg/kg) was 0.047 µM·h and the C0 ([3]; in vivo, 0.4 mg/kg) was 108 nM. The Cmax ([3]; in vivo, 0.4 mg/kg) was 83 nM, the clearance ([3]; in vivo, 0.4 mg/kg, read-out: CL) was 141 mL/min/kg and the Vd ([3]; in vivo, 0.4 mg/kg) was 4.9 L/kg. It also gave an AUC(0-inf) ([3]; in vivo, 0.8 mg/kg) of 0.137 µM·h, a C0 ([3]; in vivo, 0.8 mg/kg) of 380 nM and a Cmax ([3]; in vivo, 0.8 mg/kg) of 240 nM. The clearance ([3]; in vivo, 0.8 mg/kg, read-out: CL) was 97 mL/min/kg, the Vd ([3]; in vivo, 0.8 mg/kg) was 4.6 L/kg and the “stability in buffer and lysosomes” value [4] was “stable in buffer at pH 5.6 and in lysosomes over 4 h”. For the same molecule, the “platelet aggregation after TRAP6” value [5] was “induced platelet aggregation”.

B1: G1-E152C-DAR2-(B1) (conjugate)
heavy: QVQLVQSGAEVKKPGSSVKVSCKASGGTFSDYAITWVRQAPGQGLEWMGGIIPIFGTANYAQKFQGRVTITADESTSTAYMELSSLRSEDTAVYYCAREGGLLTDISYSRYWFAYWGQGTLVTVSS
light: DIELTQPPSVSVSPGQTASITCSGDALRDKFVYWYQQKPGQAPVLVIYDDNNRPSGIPERFSGSNSGNTATLTISGTQAEDEADYYCQSWDHSYSLVVFGGGTKLTVLGQPKAAPSVTLFPPSSEELQANKATLVCLISDFYPGAVTVAWKADSSPVKAGVETTTPSKQSNNKYAASSYLSLTPEQWKSHRSYSCQVTHEGSTVEKTVAPTECS
modifications: left off: a dimerising Fc or GST
In the case of B1, the GI50 (92.1 uveal melanoma; 92.1, Table 10, read-out: GI50) is reported as 0.365 nM, the antitumor activity [6] is reported as “comparable antitumor activity” and the “clearance / exposure of ADC formats” value [7] is reported as “lowest clearance”.
